Measured values as given in patent publication US7060836B2, “Lactams as tachykinin antagonists” (Pfizer, Inc, priority 2001, dated 2006).

Tested on: not given
Assay: not given
Details: not given

Row | melting point [°C] | Compound
1 | 175.5 to 177 | Cc1cccc(N2C[C@@](CCN3CC(N4CCC(O)CC4)C3)(c3ccc(Cl)c(Cl)c3)CCC2=O)n1.O=C(O)/C=C/C(=O)O

Molecular target: T1, human NK2 receptor (Homo sapiens, UniProt P21452)
T1 construct: expressed in transfected cells; host or cells: Chinese hamster ovary (CHO) cells, membranes
T1 sequence (P21452 1-398): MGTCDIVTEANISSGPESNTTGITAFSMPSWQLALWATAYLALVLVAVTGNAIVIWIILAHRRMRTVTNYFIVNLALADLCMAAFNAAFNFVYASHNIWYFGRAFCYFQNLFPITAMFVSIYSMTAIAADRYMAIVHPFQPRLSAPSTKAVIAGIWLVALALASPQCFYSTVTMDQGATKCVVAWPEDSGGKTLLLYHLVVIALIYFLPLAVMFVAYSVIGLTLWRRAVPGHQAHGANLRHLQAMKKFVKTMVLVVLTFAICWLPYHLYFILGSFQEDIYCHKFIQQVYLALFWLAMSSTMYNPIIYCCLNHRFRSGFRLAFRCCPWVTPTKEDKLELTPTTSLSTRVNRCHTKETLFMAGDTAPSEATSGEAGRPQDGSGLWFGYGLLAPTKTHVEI
Assay: Competition with [3H] or [125I] NKA for binding to membranes of CHO cells expressing the cloned human NK2 receptor
Details: membranes from CHO cells expressing cloned human NK2 receptor, 90 min, 25° C.
Method: The affinity of the compounds of formula (I), and their salts, for the human NK2 receptor can be assessed in vitro by testing their ability to compete with [^3H] or [^125I] NKA (neurokinin A) for binding to membranes prepared from Chinese hamster ovary cells expressing the cloned human NK2 receptor using a modification of the method described in McLean, S. et al., J. Pharm. Exp. Ther., 267, 472–9 (1993). The membranes are incubated (90 min, 25° C.) with [^3H] or [^125I] NKA and a range of concentrations of the test compound. Non specific binding was determined in the presence of 1 μM SR-48968 (N-[(2S)-4-[4-(acetylamino)-4-phenyl-1-piperidinyl]-2-(3,4-dichlorophenyl)butyl]-N-methyl benzamide).

Row | Compound | Ki [nM]
2 | O=C1CC[C@](CCN2CCC(O)(c3ccccn3)CC2)(c2ccc(Cl)c(Cl)c2)CN1c1ccccn1 [Example 92, (5S)-5-(3,4-Dichlorophenyl)-5-{2-[4-hydroxy-4-(2-pyridyl)-1-piperidinyl]ethyl}-1-(2-pyridinyl)-2-piperidinone] | 7
3 | Cc1cccc(N2C[C@@](CCN3CCC(O)(c4ccccc4)CC3)(c3ccc(Cl)c(Cl)c3)CCC2=O)n1 [Example 134, (5S)-5-(3,4-Dichlorophenyl)-1-(6-methyl-2-pyridinyl)-5-{{2-[4-hydroxy-4-phenyl]-1-piperidinyl}ethyl}-2-piperidinone] | 1.9
4 | Cc1cccc(N2C[C@@](CCN3CC(N4CCOCC4)C3)(c3ccc(Cl)c(Cl)c3)CCC2=O)n1 [Example 131, (5S)-5-(3,4-Dichlorophenyl)-1-(6-methyl-2-pyridinyl)-5-{2-[3-(4-morpholinyl)-1-azetidinyl]ethyl}-2-piperidinone] | 3.8
5 | COc1cccc(N2C[C@@](CCN3CC(N4CCOCC4)C3)(c3ccc(Cl)c(Cl)c3)CCC2=O)n1 [Example 119, (5S)-5-(3,4-Dichlorophenyl)-1-(6-methoxy-2-pyridinyl)-5-{2-[3-(4-morpholinyl)-1-azetidinyl]ethyl}-2-piperidinone] | 5.4

The next lines start with the values.

Row | Ki [nM] | Compound
6 | 2.4 | CC(=O)NC1(c2ccccc2)CCN(CC[C@]2(c3ccc(Cl)c(Cl)c3)CCC(=O)N(c3ccccn3)C2)CC1 [Example 90, N-(1-{2-[(3S)-3-(3,4-Dichlorophenyl)-6-oxo-1-(2-pyridinyl)piperidinyl]ethyl}-4-phenyl-4-piperidinyl)-acetamide]
7 | 8 | CC(=O)N(C)C1CCN(CC[C@]2(c3ccc(Cl)c(Cl)c3)CCC(=O)N(c3ccccn3)C2)CC1 [Example 158, N-(1-{2-[(3S)-3-(3,4-Dichlorophenyl)-6-oxo-1-(2-pyridinyl)piperidinyl]ethyl}-4-piperidinyl)-N-methylacetamide]
8 | 2.6 | Cc1cccc(N2CC(CCN3CC(N4CCC(=O)CC4)C3)(c3ccc(Cl)c(Cl)c3)CCC2=O)n1 (centres unmarked) [Example 168, 5-(3,4-Dichlorophenyl)-1-(6-methyl-2-pyridinyl)-5-{2-[3-(4-oxo-1-piperidinyl)-1-azetidinyl]ethyl}-2-piperidinone]
9 | 12 | COC1CCN(CC[C@]2(c3ccc(Cl)c(Cl)c3)CCC(=O)N(c3ccccn3)C2)CC1 [Example 61, (5S)-5-(3,4-Dichlorophenyl)-5-[2-(4-methoxy-1-piperidinyl)ethyl]-1-(2-pyridinyl)-2-piperidinone]
10 | 2.2 | O=C1CC[C@](CCN2CC(N3CCC(O)CC3)C2)(c2ccc(Cl)c(Cl)c2)CN1c1ccccn1 [Example 73, (5S)-5-(3,4-Dichlorophenyl)-5-{2-[3-(4-hydroxy-1-piperidinyl)-1-azetidinyl]ethyl}-1-(2-pyridinyl)-2-piperidinone]
11 | 3.7 | Cc1cccc(N2C[C@@](CCN3CC(N4CCC(O)CC4)C3)(c3ccc(Cl)c(Cl)c3)CCC2=O)n1 [Example 135a, (5S)-5-(3,4-Dichlorophenyl)-1-(6-methyl-2-pyridinyl)-5-{2-[3-(4-hydroxypiperidinyl)-1-azetidinyl]ethyl}-2-piperidinone]
